Key:
Type in all cases: cell-based
[1] = system: human promyelocytes of leukemia (HL-60); assay: Caspase-9 inhibition experiment using a flow cytometer (DNA fragmentation, PI dyeing)
Procedure: The following experiment was performed using the reagents prepared in section 1-1. First of all, multiple samples were prepared in stages wherein 0 to 120 μl of caspase-9 inhibitor was added to 12 ml of a suspension ([…]) of human promyelocytes of leukemia (HL-60, purchased from Riken Cell Bank). Then, the mixture were incubated for 90 minutes, 2 ml of liposome solution comprising dimyristoyl phosphatidylcholine was each added to the samples. Subsequently, each of the samples were incubated for three hours. After washing each sample with 2 ml of −PBS, 5 ml of 70% ethanol was added to each sample, and each sample was left at freezing temperature for one hour so as to be subjected to tissue-fixing. Furthermore, following washing each sample with 2 ml of −PSB, 6 ml of RNase solution was added to each sample, and subsequently, each sample was incubated for 30 minutes. Next, following adding 670 μl of PI solution, each sample was shielded from light with aluminum foil, and was left in a dark place at freezing temperature for 30 minutes, and was subjected to PI dyeing. After PI dyeing, each sample was subjected to centrifugal separation at 2000 rpm for five minutes. After removal of supernatant, and the precipitation formed was suspended in 500 μl of −PBS so as to measure DNA content using a flow cytometer (product name, COULTER EPICS-XL). Inhibition effects were evaluated by the ratios of the DNA fragmentation percentage of the control (wherein no caspase-9 inhibitor was added, and only a liposome solution comprising dimyristoyl phosphatidylcholine was added) to the DNA fragmentation percentages of the samples wherein caspase-9 inhibitor was added in stages.

[2] = system: human promyelocytes of leukemia (HL-60); assay: Procaspase-3 catabolic enzyme inhibition experiment using a flow cytometer; details: inhibitor preincubated, then DMPC liposome solution, FIG. 4
[3] = system: human promyelocytes of leukemia (HL-60); assay: Caspase-1,4 inhibition experiment using a flow cytometer; details: inhibitor preincubated, then DMPC liposome solution, FIG. 5
[4] = control without caspase-9 inhibitor, only DMPC liposome solution, three hours

CCCCCCCCCCCCCC(=O)OC[C@H](COP(=O)([O-])OCC[N+](C)(C)C)OC(=O)CCCCCCCCCCCCC [dimyristoyl phosphatidylcholine, 1,2-dimyristoyl-sn-glycero-3-phosphocholine]
DNA fragmentation of human promyelocytes of leukemia [1, 4]: clearly observed
apoptosis induction [1, 4]: apoptosis was induced

Ac—L-Ile-L-Glu-L-Thr-L-Asp-H [procaspase-3 catabolic enzyme inhibitor]
DNA fragmentation percentage with procaspase-3 catabolic enzyme inhibitor added in stages [2]: decreased approximately depending upon the concentration

Ac—L-Leu-L-Glu-L-His-L-Asp-H [caspase-9 inhibitor]
DNA fragmentation percentage with caspase-9 inhibitor added in stages ([1]; 0 to 120 μl inhibitor preincubated 90 minutes, then DMPC liposome solution for three hours, FIG. 3): decreased approximately depending upon the concentration

Ac—L-Tyr-L-Val-L-Ala-L-Asp-H [caspase-1,4 inhibitor]
DNA fragmentation percentage with caspase-1,4 inhibitor added in stages [3]: decreased approximately depending upon the concentration
